According to patent publication US6841682B2, “Heterocycles useful in the treatment of benign prostatic hyperplasia” (Janseen Pharmaceutica N.V., priority 1997, dated 2005):
Like-named read-outs stand apart in the source and are kept apart here.

Experiments:
[1] = target: T1, α1a-AR (Homo sapiens, UniProt P35348); test: radioligand ([125I]-HEAT) receptor binding assay, COS cell membranes, α1a-AR
T1 construct: expressed in transfected cells; host or cells: COS cells (pcDNA3 vector, DEAE-dextran transient transfection); membrane preparation
T1 sequence (P35348 1-466): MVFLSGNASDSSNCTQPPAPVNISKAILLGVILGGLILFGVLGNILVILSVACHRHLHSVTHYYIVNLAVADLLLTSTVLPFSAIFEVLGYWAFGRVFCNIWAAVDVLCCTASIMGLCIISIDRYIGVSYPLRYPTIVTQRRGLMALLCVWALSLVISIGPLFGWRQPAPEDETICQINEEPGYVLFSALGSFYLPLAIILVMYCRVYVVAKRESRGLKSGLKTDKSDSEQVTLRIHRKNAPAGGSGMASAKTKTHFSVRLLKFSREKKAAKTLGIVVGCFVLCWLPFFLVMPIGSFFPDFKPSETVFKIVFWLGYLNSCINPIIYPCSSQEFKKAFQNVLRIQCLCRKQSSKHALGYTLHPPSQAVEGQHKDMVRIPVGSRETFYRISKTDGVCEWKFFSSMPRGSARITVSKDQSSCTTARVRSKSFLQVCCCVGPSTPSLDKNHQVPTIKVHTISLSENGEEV
From the text: (§1) The first assay tested the ability of compounds of Formula I to bind to membrane bound receptors α1a-AR, α1b-AR and α1d-AR.
(§2) The DNA sequences of the three cloned human α1-AR subtypes have been published. […] We used published DNA sequence information to design-primers for use in RT-PCR amplification of each subtype to obtain cloned cDNAs. Human poly A+ RNA was obtained from commercially available sources and included hippocampus and prostate samples, sources which have been cited in the literature. For the primary screen a radio ligand binding assay was used which employed membrane preparations from cells expressing the individual cloned receptor cDNAs.
(§3) Each α1 receptor subtype was cloned from poly A+ RNA by the standard method of reverse transcription-polymerase chain reaction (RT-PCR). The following sources of polyA+ RNA were used for the cloning of the al receptor subtypes: α1a-AR, human hippocampus and prostate, α1b-AR, human hippocampus, α1d-AR, human hippocampus. The resulting cDNAs were cloned into the pcDNA3 mammalian expression vector (Invitrogen Corp., San Diego Calif.). Each DNA was sequenced for verification and to detect any possible mutations introduced during the amplification process. Any deviation in sequence from the published consensus for each receptor subtype was corrected by site-directed mutagenesis.
(§4) The three α1-AR subtypes (a, b, d) were transfected into COS cells using a standard DEAE-dextran procedure with a chloroquine shock. In this procedure, each tissue culture dish (100 mm) was inoculated with 3.5×10^6 cells and transfected with 10 μg of DNA. Approximately 72 hours post-transfection, the cells were harvested and COS membranes were prepared. Transfected COS cells from 25 plates (100 mm) were scraped and suspended in 15 mL of TE buffer (50 mM Tris-HCl, 5 mM EDTA, pH7.4). The suspension was disrupted with a homogenizer. It was then centrifuged at 1000×g for 10 minutes at 4° C. The supernatant was centrifuged at 34,500×g for 20 minutes at 4° C. The pellet was resuspended in 5 mL TNE buffer (50 mM Tris-HCl, 5 mM EDTA, 150 mM NaCl, pH7.4). The resulting membrane preparation was aliquoted and stored at −70° C. The protein concentration was determined following membrane solubilization with TritonX-100.
The ability of each compound to bind to each of the α1-AR subtypes was assessed in a receptor binding assay. […] The plate was incubated for 1 hour at room temperature and the reaction mixtures were filtered through a Packard GF/C Unifilter filter plate. The filter plate was dried for 1 hour in a vacuum oven. Scintillation fluid ([…]) was added to each well, and the filter plate was counted in a Packard Topcount scintillation counter. Data was analyzed using GraphPad Prism software.

[2] = target: T2, α1b-AR (Homo sapiens, UniProt P35368); test: radioligand ([125I]-HEAT) receptor binding assay, COS cell membranes, α1b-AR
T2 construct: expressed in transfected cells; host or cells: COS cells (pcDNA3 vector, DEAE-dextran transient transfection); membrane preparation
T2 sequence (P35368 1-520): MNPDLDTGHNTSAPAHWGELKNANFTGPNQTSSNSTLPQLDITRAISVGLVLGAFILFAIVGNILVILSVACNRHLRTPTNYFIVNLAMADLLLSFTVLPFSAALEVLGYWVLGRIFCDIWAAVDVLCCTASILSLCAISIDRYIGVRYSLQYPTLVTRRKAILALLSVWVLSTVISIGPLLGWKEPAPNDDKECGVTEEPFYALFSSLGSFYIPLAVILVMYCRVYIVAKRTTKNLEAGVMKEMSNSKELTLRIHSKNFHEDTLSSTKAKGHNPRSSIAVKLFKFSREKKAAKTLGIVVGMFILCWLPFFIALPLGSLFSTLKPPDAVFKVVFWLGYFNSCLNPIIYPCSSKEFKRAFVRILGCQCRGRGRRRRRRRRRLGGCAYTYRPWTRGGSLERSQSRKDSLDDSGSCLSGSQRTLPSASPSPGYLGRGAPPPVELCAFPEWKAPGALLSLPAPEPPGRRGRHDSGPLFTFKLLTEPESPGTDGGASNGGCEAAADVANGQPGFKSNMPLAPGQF
From the text: as §1
as §2, with “receptor cDNAs. Radiolabeled ligands with binding activity on all three subtypes (non-selective) are commercially available ([125I]-HEAT, [3H]-prazosin).” for “receptor cDNAs.”
as §3, §4
(§5) The ability of each compound to bind to each of the α1-AR subtypes was assessed in a receptor binding assay. [125I]-HEAT, a non-selective α1-AR ligand, was used as the radiolabeled ligand. Each well of a 96-well plate received: 140 μL TNE, 25 μL [125I]-HEAT diluted in TNE (50,000 cpm; final concentration 50 pM), 10 μL test compound diluted in DMSO (final concentration 1 pM-10 μM), […] COS cell membrane preparation expressing one of the three α1-AR subtypes (0.05-0.2 mg membrane protein). The plate was incubated for 1 hour at room temperature and the reaction mixtures were filtered through a Packard GF/C Unifilter filter plate. The filter plate was dried for 1 hour in a vacuum oven. Scintillation fluid ([…]) was added to each well, and the filter plate was counted in a Packard Topcount scintillation counter. Data was analyzed using GraphPad Prism software.
(§6) Tables A-J list the IC50 values expressed in nanomolar concentration for select compounds of the invention in all receptor subtypes.

[3] = target: T3, α1d-AR (Homo sapiens, UniProt P25100); test: radioligand ([125I]-HEAT) receptor binding assay, COS cell membranes, α1d-AR; conditions: Tables A-J, [125I]-HEAT 50 pM
T3 construct: expressed in transfected cells; host or cells: COS cells (pcDNA3 vector, DEAE-dextran transient transfection); membrane preparation
T3 sequence (P25100 1-572): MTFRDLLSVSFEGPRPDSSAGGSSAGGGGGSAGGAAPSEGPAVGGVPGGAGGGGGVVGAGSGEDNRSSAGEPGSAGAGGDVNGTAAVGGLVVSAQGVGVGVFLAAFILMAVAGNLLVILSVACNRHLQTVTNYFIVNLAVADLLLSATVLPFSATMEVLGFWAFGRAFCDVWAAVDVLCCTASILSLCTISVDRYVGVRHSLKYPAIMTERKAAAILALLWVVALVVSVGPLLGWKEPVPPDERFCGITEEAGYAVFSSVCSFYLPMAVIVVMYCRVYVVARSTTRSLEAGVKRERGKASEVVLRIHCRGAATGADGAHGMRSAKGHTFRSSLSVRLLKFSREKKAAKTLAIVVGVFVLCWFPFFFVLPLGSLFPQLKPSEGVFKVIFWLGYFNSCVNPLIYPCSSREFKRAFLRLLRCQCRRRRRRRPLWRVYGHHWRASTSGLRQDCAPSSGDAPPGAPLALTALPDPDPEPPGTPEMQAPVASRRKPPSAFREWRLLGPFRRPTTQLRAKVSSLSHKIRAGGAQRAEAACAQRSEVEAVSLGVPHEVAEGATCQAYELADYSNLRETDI
From the text: as §1
as §2, with “receptor cDNAs. Radiolabeled ligands with binding activity on all three subtypes (non-selective) are commercially available ([125I]-HEAT, [3H]-prazosin).” for “receptor cDNAs.”
as §3, §4, §5, §6

[4] = target: T4, α1c (Homo sapiens, UniProt P25100); test: α1c screen (as named in the preparative examples); format: binding; conditions: stated in the preparative example
T4 construct: expressed in transfected cells
T4 sequence (P25100 1-572): T3 sequence (P25100 1-572)
From the text: as §1
as §2, with “receptor cDNAs. Radiolabeled ligands with binding activity on all three subtypes (non-selective) are commercially available ([125I]-HEAT, [3H]-prazosin).” for “receptor cDNAs.”
as §3, §4
The ability of each compound to bind to each of the α1-AR subtypes was assessed in a receptor binding assay. [125I]-HEAT, a non-selective α1-AR ligand, was used as the radiolabeled ligand. […] Scintillation fluid (25 mL) was added to each well, and the filter plate was counted in a Packard Topcount scintillation counter. Data was analyzed using GraphPad Prism software.

[5] = Tables A-J, [125I]-HEAT 50 pM, COS membranes, read-out: α1a IC50
[6] = Tables A-J, [125I]-HEAT 50 pM, COS membranes, read-out: α1b IC50
[7] = stated in the preparative example, read-out: activity in the α1a screen
[8] = stated in the preparative example, read-out: activity in the α1b screen

| IC50 [1, 5] | IC50 [2, 6] | IC50 [3] | IC50 [1, 7] | IC50 [2, 8] | IC50 [4] | SMILES |
| --- | --- | --- | --- | --- | --- | --- |
| 172 nM | > 10000 nM | 570 nM | – | – | – | O=C1CCCCCN1Cc1cc(CN2CCN(c3ccccc3Oc3ccccc3)CC2)on1 [compound 39] |
| 37 nM | > 10000 nM | 24 nM | – | – | – | COc1ccccc1N1CCN(Cc2ccc(CN3CCCCCC3=O)s2)CC1 [compound 49] |
| – | – | – | 417 nM | > 10000 nM | 6040 nM | CC(C)Oc1ccccc1N1CCN(CC(=O)CC(=O)CN2CCCCC2=O)CC1 [compound 2] |
| 69 nM | 1750 nM | 174 nM | – | – | – | CC(C)Oc1ccccc1N1CCN(Cc2cccc(CN3C(=O)CCC3=O)n2)CC1 [compound 46] |
| 147 nM | 3320 nM | 291 nM | – | – | – | CC(C)Oc1ccccc1N1CCN(Cc2cccc(CN3C(=O)CCCC3c3ccccc3)n2)CC1 (centres unmarked) [compound 47] |
| 80 nM | > 10000 nM | 46 nM | – | – | – | COc1ccccc1N1CCN(Cc2ccc(CN3CCCC3=O)s2)CC1 [Compound 23] |
| 89 nM | > 10000 nM | 1520 nM | – | – | – | CC(C)Oc1ccccc1N1CCN(CC2=NOC(CN3CCCCC3=O)C2)CC1 (centres unmarked) [Compound 9] |
| 1730 nM | 3020 nM | 500 nM | – | – | – | COc1ccccc1N1CCN(Cc2cccc(CN3CCCCC3=O)n2)CC1 [compound 54] |
| 2.2 nM | > 5980 nM | 131 nM | – | – | – | CC(C)Oc1ccccc1N1CCN(Cc2cc(CN3CCCC3=O)no2)CC1 [Compound 28] |
| 7630 nM | 3170 nM | 1680 nM | – | – | – | COc1ccccc1N1CCN(Cc2cccc(CN3CCC3=O)n2)CC1 [compound 41] |
| 98 nM | 96 nM | 197 nM | – | – | – | CC(C)Oc1ccccc1N1CCN(Cc2cccc(CN3C(=O)CCCC3=O)n2)CC1 [compound 45] |
| 30 nM | 4410 nM | 341 nM | – | – | – | O=C1CCCN1Cc1cc(CN2CCN(c3ccccc3Oc3ccccc3)CC2)on1 [compound 38] |
| – | – | – | 28 nM | > 10000 nM | 253 nM | CC(C)Oc1ccccc1N1CCN(CC(O)CC(=O)CN2CCCCC2=O)CC1 (centres unmarked) [compound 35] |
| 3.8 nM | – | 272 nM | – | – | – | CC(C)Oc1ccccc1N1CCN(Cc2cc(CN3CCCCC3=O)on2)CC1 [Compound 8] |
| 2030 nM | 3940 nM | 577 nM | – | – | – | COc1ccccc1N1CCN(Cc2cccc(CN3CCCCCCC3=O)n2)CC1 [compound 44] |
| 4640 nM | > 10000 nM | > 10000 nM | – | – | – | CC(C)Oc1ccccc1N1CCN(Cc2nc(CN3CCCCC3=O)co2)CC1 [Compound 12] |
| 6.3 nM | > 10000 nM | 215 nM | 18 nM | 5320 nM | 602 nM | CC(C)Oc1ccccc1N1CCN(C/C=C/C(=O)CN2CCCCC2=O)CC1 [compound 36] |
| 838 nM | > 5140 nM | 261 nM | – | – | – | COc1ccccc1N1CCN(Cc2ccc(CN3CCCCC3CO)s2)CC1 (centres unmarked) [compound 50] |
| 1 nM | 768 nM | 185 nM | – | – | – | CC(C)Oc1ccccc1N1CCN(Cc2cc(CN3CCCCC3=O)cs2)CC1 [compound 55] |
| 2.5 nM | 3470 nM | 79 nM | – | – | – | CC(C)Oc1ccccc1N1CCN(Cc2ncc(CN3CCCC3=O)s2)CC1 [Compound 17] |
| 8590 nM | 1420 nM | 526 nM | – | – | – | COc1ccccc1N1CCN(Cc2cccc(CN3CCCCCC3=O)n2)CC1 [compound 42] |
| 0.83 nM | 620 nM | 24 nM | – | – | – | CC(C)Oc1ccccc1N1CCN(Cc2cc(CN3CCCC3=O)cs2)CC1 [Compound 32] |
| – | – | – | 53 nM | > 10000 nM | 224 nM | CC(C)Oc1ccccc1N1CCN(CC(O)CC(O)CN2CCCCC2=O)CC1 (centres unmarked) [compound 37] |
| 29 nM | > 10000 nM | 26 nM | – | – | – | COc1ccccc1N1CCN(Cc2ccc(CN3CCCCC3=O)s2)CC1 [compound 48] |
| 3.7 nM | 1230 nM | 95 nM | – | – | – | CC(C)Oc1ccccc1N1CCN(Cc2cc(CN3CCCCCC3=O)cs2)CC1 [compound 56] |
| 79 nM | > 10000 nM | > 10000 nM | – | – | – | CC(C)Oc1ccccc1N1CCN(Cc2cc(CN3CCCCC3=O)nc(N)n2)CC1 [Compound 4] |

| SMILES | IC50 [1, 5] | IC50 [2, 6] | IC50 [3] | IC50 [1, 7] | IC50 [2, 8] | IC50 [4] |
| --- | --- | --- | --- | --- | --- | --- |
| COc1ccccc1N1CCN(Cc2cccc(CN3CCCC3=O)n2)CC1 [compound 43] | 7720 nM | 2640 nM | 1560 nM | – | – | – |
